Data taken from ChEMBL document CHEMBL1201862, “PubChem BioAssay data set” (2004).
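Exposure lasted 48 hours, with cells grown in 96-well plates and compounds tested at five concentrations. GI50 marks 50% less growth.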 Calls of active or inactive are those of the source. Cut-off read from the data, not from the text of the source: active = GI50 up to about 1.1 µM and inactive = higher.

Experiments:
Test in all cases: NCI tumour cell line growth inhibition, 48 h
SF-295 = tested on: SF-295
KM12 = tested on: KM12
NCI-H460 = tested on: NCI-H460
IGROV-1 = tested on: IGROV-1
MDA-MB-231 = tested on: MDA-MB-231
MDA-MB-435 = tested on: MDA-MB-435
SK-MEL-2 = tested on: SK-MEL-2
HT-29 = tested on: HT-29
OVCAR-8 = tested on: OVCAR-8
A498 = tested on: A498
SW-620 = tested on: SW-620
HCT-15 = tested on: HCT-15
DU-145 = tested on: DU-145
U-251 = tested on: U-251
Malme-3M = tested on: Malme-3M
SK-MEL-5 = tested on: SK-MEL-5
HCC 2998 = tested on: HCC 2998
786-0 = tested on: 786-0
MCF7 = tested on: MCF7
NCI-H23 = tested on: NCI-H23

Row | Compound | GI50 (SF-295) | GI50 (KM12) | GI50 (NCI-H460) | GI50 (IGROV-1) | GI50 (MDA-MB-231) | GI50 (MDA-MB-435) | GI50 (SK-MEL-2) | GI50 (HT-29) | GI50 (OVCAR-8) | GI50 (A498) | GI50 (SW-620) | GI50 (HCT-15) [µM] | GI50 (DU-145) | GI50 (U-251) | GI50 (Malme-3M) | GI50 (SK-MEL-5) | GI50 (HCC 2998) | GI50 (786-0) | GI50 (MCF7) | GI50 (NCI-H23)
1 | CN1CCN(C2CC(=O)c3c(Cl)sc(Cl)c32)CC1 (stereo unspecified) | 21.4 µM (inactive) | 10.8 µM (inactive) | 30.6 µM (inactive) | 8.69 µM (inactive) | 20 µM (inactive) | 7.05 µM (inactive) | 19.1 µM (inactive) | 11.4 µM (inactive) | 7.66 µM (inactive) | 43.2 µM (inactive) | 7.94 µM (inactive) | 10.4 | 12.6 µM (inactive) | 11.3 µM (inactive) | 23.9 µM (inactive) | 30.1 µM (inactive) | 8.87 µM (inactive) | 7.21 µM (inactive) | 4.99 µM (inactive) | 9.12 µM (inactive)
2 | O=C1Nc2cccc(Cl)c2/C1=C\c1c(Cl)nc2sccn12 | 28.2 µM (inactive) | > 100 µM (inactive) | > 100 µM (inactive) | 28 µM (inactive) | 16.3 µM (inactive) | > 100 µM (inactive) | 13.5 µM (inactive) | > 100 µM (inactive) | 31.1 µM (inactive) | 33.1 µM (inactive) | > 100 µM (inactive) | > 100 | 65 µM (inactive) | 6.03 µM (inactive) | 76 µM (inactive) | > 100 µM (inactive) | > 100 µM (inactive) | 9.31 µM (inactive) | > 100 µM (inactive) | 21.7 µM (inactive)
3 | Cc1ccc(-c2cn3c(nc4ccccc43)c(/C=C/c3ccco3)n2)cc1 |  | 50.1 µM (inactive) | 58.1 µM (inactive) | 62.1 µM (inactive) | > 100 µM (inactive) | 29.2 µM (inactive) | 22.1 µM (inactive) | > 100 µM (inactive) |  | > 100 µM (inactive) | 47.6 µM (inactive) | > 100 | > 100 µM (inactive) | 60.5 µM (inactive) | 65.6 µM (inactive) | 34.8 µM (inactive) | > 100 µM (inactive) | 48 µM (inactive) | 29.6 µM (inactive) | 37 µM (inactive)
4 | COC(=O)/C=C\C(C#N)(C#N)/N=C/c1cccc(OC)c1 | 32.7 µM (inactive) | 16.4 µM (inactive) | 20 µM (inactive) | 11.7 µM (inactive) | 13.2 µM (inactive) | 6.5 µM (inactive) | 17.1 µM (inactive) | 3.77 µM (inactive) | 3.13 µM (inactive) | 18.6 µM (inactive) | 2.13 µM (inactive) | 1.93 | 14.5 µM (inactive) | 15.9 µM (inactive) | 1.71 µM (inactive) | 16.8 µM (inactive) | 16.3 µM (inactive) | 3.51 µM (inactive) | 4.94 µM (inactive) | 6.9 µM (inactive)
5 | NCCCc1ccc2oc3ccccc3c2c1 | 18.5 µM (inactive) |  | 17 µM (inactive) | 20.6 µM (inactive) | 17.7 µM (inactive) | 15.7 µM (inactive) | 20.4 µM (inactive) | 12.6 µM (inactive) | 22.7 µM (inactive) | 16.1 µM (inactive) | 18.9 µM (inactive) | 17.6 | 16.9 µM (inactive) | 18.7 µM (inactive) | 17.5 µM (inactive) | 14.9 µM (inactive) | 10.6 µM (inactive) | 13.7 µM (inactive) | 18.7 µM (inactive) | 20.6 µM (inactive)
6 | Cc1ccc(C2NC(=N)NC3=C2CCOc2c3ccc3ccccc23)cc1 (stereo unspecified) | 16 µM (inactive) | 4.21 µM (inactive) | 14.2 µM (inactive) |  | 3.75 µM (inactive) | 2.27 µM (inactive) | 36.7 µM (inactive) | 1.81 µM (inactive) | 33.6 µM (inactive) | 17.3 µM (inactive) | 6.84 µM (inactive) | 4.3 | 7.35 µM (inactive) | 15.9 µM (inactive) |  | 12.9 µM (inactive) | 7.16 µM (inactive) | 2.61 µM (inactive) | 4.91 µM (inactive) | 34.9 µM (inactive)
7 | CCc1ccc2c(c1)/C(=C1/Nc3ccccc3/C1=N/O)C(=O)N2 | 6.25 µM (inactive) | 0.117 µM (active) | 5.11 µM (inactive) | 5.08 µM (inactive) | 20 µM (inactive) | 7.55 µM (inactive) | 4.38 µM (inactive) | 4.71 µM (inactive) | 6.55 µM (inactive) | 4.03 µM (inactive) | 4.53 µM (inactive) | 3.53 | 6.49 µM (inactive) | 9.31 µM (inactive) | 3.72 µM (inactive) | 3.7 µM (inactive) | 3.3 µM (inactive) | 6.61 µM (inactive) | 1.66 µM (inactive) | 5.18 µM (inactive)
8 | CCOC(=O)C1C(c2ccccc2)C2(C#N)C(=N)OC1(C)C2(C#N)C#N (stereo unspecified) | 36.2 µM (inactive) | > 10 µM (inactive) |  | 18.5 µM (inactive) | 10.9 µM (inactive) | 22.4 µM (inactive) | 20.7 µM (inactive) | 16 µM (inactive) | 24.5 µM (inactive) | 32.7 µM (inactive) | 44.8 µM (inactive) | 37.3 | 30.6 µM (inactive) | 28.7 µM (inactive) | 20.5 µM (inactive) | 10.5 µM (inactive) | 13.8 µM (inactive) | 13.6 µM (inactive) | 46.8 µM (inactive) | 17.5 µM (inactive)
9 | CN(C)C1(N(C)C)Oc2c(c(=O)n(C)c(=O)n2C)C(c2ccc(Br)cc2)C1(F)F (stereo unspecified) | > 100 µM (inactive) | > 100 µM (inactive) | > 100 µM (inactive) |  | > 100 µM (inactive) | > 100 µM (inactive) | > 100 µM (inactive) |  |  | > 100 µM (inactive) | > 100 µM (inactive) | > 100 | > 100 µM (inactive) | > 100 µM (inactive) |  | > 100 µM (inactive) | > 100 µM (inactive) | > 100 µM (inactive) | > 100 µM (inactive) | > 100 µM (inactive)
10 | CC1OC(n2cc(F)c(=O)[nH]c2=O)C(O[Si](C)(C)C(C)(C)C)C1O[Si](C)(C)C(C)(C)C (stereo unspecified) | 11.5 µM (inactive) | 11.9 µM (inactive) |  | 13.3 µM (inactive) | 5.78 µM (inactive) | 17.9 µM (inactive) | 16.3 µM (inactive) | 10.8 µM (inactive) | 14.7 µM (inactive) | 14.2 µM (inactive) | 15 µM (inactive) | 12.9 | 13.6 µM (inactive) | 13.9 µM (inactive) | 14.9 µM (inactive) | 14.9 µM (inactive) | 13.4 µM (inactive) | 14.6 µM (inactive) | 6.76 µM (inactive) | 10.6 µM (inactive)
11 | C1=C[C@]2(CCC13OCCO3)COc1ccccc12 | 43.1 µM (inactive) | 26.3 µM (inactive) | 31.7 µM (inactive) |  | 75.9 µM (inactive) | 31.9 µM (inactive) | 34.7 µM (inactive) | 28.5 µM (inactive) | 32.4 µM (inactive) | > 100 µM (inactive) | 54.8 µM (inactive) | 28 | 32.3 µM (inactive) | 48.8 µM (inactive) |  | 52 µM (inactive) | 43.6 µM (inactive) | 54.3 µM (inactive) | 33.3 µM (inactive) | 26.5 µM (inactive)
12 | Cc1ccc(C2=CC(=O)/C(=C\C(=O)c3ccc(Br)cc3)O2)c(C)c1 | 26 µM (inactive) | 20.4 µM (inactive) | 26.5 µM (inactive) | 18.4 µM (inactive) | 9.31 µM (inactive) | 13.6 µM (inactive) | 49.1 µM (inactive) | 7.89 µM (inactive) | 6.58 µM (inactive) | 19.9 µM (inactive) |  | 12.2 | 30.4 µM (inactive) | 18 µM (inactive) | 10.5 µM (inactive) | 14.5 µM (inactive) | 12.1 µM (inactive) | 8.34 µM (inactive) | 5.33 µM (inactive) | 26.6 µM (inactive)
13 | Cc1ccc2nc(Cl)c(/C=N/N3C(=O)/C(=C/Cc4ccco4)N=C3c3ccccc3)cc2c1 | > 82.8 µM (inactive) | 3.33 µM (inactive) | 26.4 µM (inactive) | 23.1 µM (inactive) | 67.8 µM (inactive) | 2.1 µM (inactive) | 56.6 µM (inactive) | 32.7 µM (inactive) | 34.4 µM (inactive) | 5.06 µM (inactive) | 58.1 µM (inactive) | 27.7 | 36.6 µM (inactive) | 50.8 µM (inactive) | 63.5 µM (inactive) | 56.4 µM (inactive) | 28.6 µM (inactive) | 20.4 µM (inactive) | 40.3 µM (inactive) | > 49.2 µM (inactive)
14 | O=[N+]([O-])c1ccc2nc3ccccc3cc2c1 |  |  | 3.03 µM (inactive) | 1.91 µM (inactive) | 2.55 µM (inactive) | 1.46 µM (inactive) | 4.73 µM (inactive) | 2 µM (inactive) | 1.26 µM (inactive) | 1.5 µM (inactive) | 1.85 µM (inactive) | 1.37 | 2.82 µM (inactive) | 2.69 µM (inactive) | 2.9 µM (inactive) | 3.1 µM (inactive) | 1.63 µM (inactive) | 2.38 µM (inactive) | 2.39 µM (inactive) | 2.28 µM (inactive)
15 | CC(C)C1=CC23CCC4C(C)(C(=O)O)CCCC4(C)C2CC1C1C(=O)N(c2cccc(N4C(=O)C5C6CC7C8(C)CCCC(C)(C(=O)O)C8CCC7(C=C6C(C)C)C5C4=O)c2)C(=O)C13 (stereo unspecified) |  | 2.75 µM (inactive) |  |  | 14.8 µM (inactive) | 4.02 µM (inactive) | 15.7 µM (inactive) | 3.84 µM (inactive) | 8.61 µM (inactive) | 13.4 µM (inactive) | 16.3 µM (inactive) | 11.4 | 10.8 µM (inactive) | 3.24 µM (inactive) | 17 µM (inactive) | 15.3 µM (inactive) | 6.81 µM (inactive) | 32 µM (inactive) | 4.38 µM (inactive) | 3.4 µM (inactive)
